In patent US8796256B2 (Janssen Pharmaceutica NV, priority 2010, dated 2014) one finds EC50 data, which are given here for 22 compounds.

The target in the experiment is T1, ERR1 (also known as ERR-α or ERR-1) (Homo sapiens, UniProt P11474).
T1 sequence (P11474 193-421 limits assumed): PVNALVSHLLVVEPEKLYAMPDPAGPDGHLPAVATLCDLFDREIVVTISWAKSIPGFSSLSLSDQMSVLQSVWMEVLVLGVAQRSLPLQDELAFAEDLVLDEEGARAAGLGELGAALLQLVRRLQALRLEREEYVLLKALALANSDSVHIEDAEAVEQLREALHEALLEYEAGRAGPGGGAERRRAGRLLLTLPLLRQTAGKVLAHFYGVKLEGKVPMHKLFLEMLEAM
The experiment in a line: TR-FRET assay (disruption of co-activator peptide binding to ERR1 LBD). The experiment is classed as biochemical. The following applies: 6 nM 6His-ERR1LBD, 6 nM GST-SRC-2 peptide; average of 3 independent experiments. How it is done: Time-Resolved Fluorescence Resonance Energy Transfer (TR-FRET) experiments were performed to examine the functional response of ERR1 (also known as ERR-α or ERR-1) ligands. The TR-FRET assay described herein relied on the conformation of ERR1 for binding to a co-activator peptide: when a test compound binds to ERR1 and alters its conformation, it can disrupt the binding of the co-activator peptide. The components of this homogeneous secondary assay included: the ^6His-tagged-ERR1LBD, a GST-labeled-hSRC2 co-activator polypeptide and a fluorescent donor/acceptor pair from CIS bio international htrf/bioassays (Bedford, Mass.) using both an α-GST Europium (Eu) Cryptate label and an α^6His-XL665 (allophycocyanin) fluorophore.
For TR-FRET measurements, the reaction was buffered in 25 mM Tris pH 8, 2.5 mM Hepes, 20 mM KCl, 1 mM DTT, and 0.05 mg/mL BSA (delipidated). The final concentrations of reagents were 6 nM of ERR1LBD, 6 nM GST-SRC-2 peptide, 30 nM Eu cryptate, and 7.5 nM a^6His-XL665. Reactions were allowed to reach equilibrium at 25° C. for 4-18 h before collecting data on the Analyst from LJL Biosystems (Molecular Devices Sunnyvale, Calif.). […] Dose response curves were fitted using a hyperbolic equation and the data reported is the average of 3 independent experiments.
The EC50 is the concentration needed to bring the measured effect to its halfway point. A low value points to an effect from little substance. `CN1CC[C@@H](N2C(=O)S/C(=C\c3ccc4c(cnn4Cc4ccc(Cl)cc4C(F)(F)F)c3)C2=O)C1` [Compound 144, (5Z)-5-({1-[4-Chloro-2-(trifluoromethyl)benzyl]-1H-indazol-5-yl}methylidene)-3-[(3R)-1-methylpyrrolidin-3-yl]-1,3-thiazolidine-2,4-dione]: the EC50 was 31 nM.

Compound `Cc1nn(Cc2ccc(Cl)cc2C(F)(F)F)c2ccc(/C=C3\SC(=O)N(CCN4CCCC4)C3=O)cc12` [Compound 41, (5Z)-5-({1-[4-Chloro-2-(trifluoromethyl)benzyl]-3-methyl-1H-indazol-5-yl}methylidene)-3-(2-pyrrolidin-1-ylethyl)-1,3-thiazolidine-2,4-dione] returned an EC50 of 9 nM.

Compound `CCN1CC[C@@H](N2C(=O)S/C(=C\c3ccc4c(cnn4Cc4ccc(Cl)cc4C(F)(F)F)c3)C2=O)[C@H](F)C1` [Compound 386, (5Z)-5-({1-[4-Chloro-2-(trifluoromethyl)benzyl]-1H-indazol-5-yl}methylidene)-3-[(3R,4R)-1-ethyl-3-fluoropiperidin-4-yl]-1,3-thiazolidine-2,4-dione] had an EC50 of 42 nM.

The compound `CCN(CC)CCN1C(=O)S/C(=C\c2ccc3c(cnn3Cc3ccc(OC)cc3C(F)(F)F)c2)C1=O` [Compound 18, (5Z)-3-[2-(Diethylamino)ethyl]-5-({1-[4-methoxy-2-(trifluoromethyl)benzyl]-1H-indazol-5-yl}methylidene)-1,3-thiazolidine-2,4-dione] gave a half-maximal effective concentration (EC50) of 20 nM.

`COc1ccc(Cn2ncc3cc(/C=C4\SC(=O)N(CCN5CC[C@H](O)C5)C4=O)ccc32)c(C(F)(F)F)c1` [Compound 14, (5Z)-3-{2-[(3S)-3-Hydroxypyrrolidin-1-yl]ethyl}-5-({1-[4-methoxy-2-(trifluoromethyl)benzyl]-1H-indazol-5-yl}methylidene)-1,3-thiazolidine-2,4-dione] came in with a concentration giving a half-maximal response (EC50) of 100 nM. Against the preceding compound, the EC50 is about 5-fold higher.

As for `Cn1cnc(CN2C(=O)S/C(=C\c3ccc4c(cnn4Cc4ccc(Cl)cc4C(F)(F)F)c3)C2=O)c1` [Compound 402, (5Z)-5-({1-[4-Chloro-2-(trifluoromethyl)benzyl]-1H-indazol-5-yl}methylidene)-3-[(1-methyl-1H-imidazol-4-yl)methyl]-1,3-thiazolidine-2,4-dione], the EC50 stood at 48 nM.

For the compound `CC(C)N1CC[C@@H](N2C(=O)S/C(=C\c3ccc4c(cnn4Cc4ccc(Cl)cc4C(F)(F)F)c3)C2=O)[C@H](F)C1` [Compound 387, (5Z)-5-({1-[4-Chloro-2-(trifluoromethyl)benzyl]-1H-indazol-5-yl}methylidene)-3-[(3R,4R)-3-fluoro-1-(1-methylethyl)piperidin-4-yl]-1,3-thiazolidine-2,4-dione], the 50% effective concentration (EC50) was 123 nM.

As to `CN1C[C@H](O)C[C@H]1CN1C(=O)S/C(=C\c2ccc3c(cnn3Cc3ccc(Cl)cc3C(F)(F)F)c2)C1=O` [Compound 191, (5Z)-5-({1-[4-Chloro-2-(trifluoromethyl)benzyl]-1H-indazol-5-yl}methylidene)-3-{[(2S,4R)-4-hydroxy-1-methylpyrrolidin-2-yl]methyl}-1,3-thiazolidine-2,4-dione], a half-maximal effect (EC50) was put at 19 nM.

The compound `[2H]C([2H])([2H])N1CCC(F)(CN2C(=O)S/C(=C\c3ccc4c(cnn4Cc4ccc(Cl)cc4C(F)(F)F)c3)C2=O)CC1` [Compound 307, (5Z)-5-({1-[4-Chloro-2-(trifluoromethyl)benzyl]-1H-indazol-5-yl}methylidene)-3-{[4-fluoro-1-(^2H3)methylpiperidin-4-yl]methyl}-1,3-thiazolidine-2,4-dione] returned an EC50 of 210 nM.

Compound `NS(=O)(=O)CN1C(=O)S/C(=C\c2ccc3c(cnn3Cc3ccc(Cl)cc3C(F)(F)F)c2)C1=O` [Compound 165, 1-[(5Z)-5-({1-[4-Chloro-2-(trifluoromethyl)benzyl]-1H-indazol-5-yl}methylidene)-2,4-dioxo-1,3-thiazolidin-3-yl]methanesulfonamide] registered an EC50 of 34 nM.

In the case of `Cc1nn(Cc2ccc(Cl)cc2C(F)(F)F)c2ccc(/C=C3\SC(=O)N([C@@H]4CCNC[C@H]4F)C3=O)cc12` (relative stereo) [Compound 333, (5Z)-5-({1-[4-Chloro-2-(trifluoromethyl)benzyl]-3-methyl-1H-indazol-5-yl}methylidene)-3-[trans-3-fluoropiperidin-4-yl]-1,3-thiazolidine-2,4-dione], it took 48 nM to reach a half-maximal effect (EC50). The EC50 values of the last two compounds are within 1.5-fold of each other.

On to `CN(CCN1C(=O)S/C(=C\c2ccc3c(cnn3Cc3ccc(Cl)cc3C(F)(F)F)c2)C1=O)S(=O)(=O)c1ccc(C(F)(F)F)cc1` [Compound 395, N-{2-[(5Z)-5-({1-[4-Chloro-2-(trifluoromethyl)benzyl]-1H-indazol-5-yl}methylidene)-2,4-dioxo-1,3-thiazolidin-3-yl]ethyl}-N-methyl-4-(trifluoromethyl) benzenesulfonamide], for which the midpoint of the response, the EC50, lay at 460 nM.

In turn, `CN1CCC(C(=O)O)(N2C(=O)S/C(=C\c3ccc4c(cnn4Cc4ccc(Cl)cc4C(F)(F)F)c3)C2=O)CC1` [Compound 220, 4-[(5Z)-5-({1-[4-Chloro-2-(trifluoromethyl)benzyl]-1H-indazol-5-yl}methylidene)-2,4-dioxo-1,3-thiazolidin-3-yl]-1-methylpiperidine-4-carboxylic acid] had an EC50 of 74 nM.

Consider `O=C1S/C(=C\c2ccc3c(cnn3Cc3ccc(Cl)cc3C(F)(F)F)c2)C(=O)N1CCNS(=O)(=O)c1ccc(C(F)(F)F)cc1` [Compound 392, N-{2-[(5Z)-5-({1-[4-Chloro-2-(trifluoromethyl)benzyl]-1H-indazol-5-yl}methylidene)-2,4-dioxo-1,3-thiazolidin-3-yl]ethyl}-4-(trifluoromethyl) benzenesulfonamide], for which a half-maximal response (EC50) required 215 nM. This EC50 is about 2.9-fold higher than that of the compound before.

In turn, `O=C1S/C(=C\c2ccc3c(cnn3Cc3ccc(Cl)cc3C(F)(F)F)c2)C(=O)N1C1CN2CCC1CC2` (stereo not shown) [Compound 112, (5Z)-3-(1-Azabicyclo[2.2.2]oct-3-yl)-5-({1-[4-chloro-2-(trifluoromethyl)benzyl]-1H-indazol-5-yl}methylidene)-1,3-thiazolidine-2,4-dione] displayed a half-maximal effective concentration (EC50) of 22 nM.

`Cc1nn(Cc2ccc(Cl)cc2C(F)(F)F)c2ccc(/C=C3\SC(=O)N(NS(C)(=O)=O)C3=O)cc12` [Compound 365, N-[(5Z)-5-({1-[4-Chloro-2-(trifluoromethyl)benzyl]-3-methyl-1H-indazol-5-yl}methylidene)-2,4-dioxo-1,3-thiazolidin-3-yl]methanesulfonamide] had an EC50 of 23 nM.

With `O=C1S/C(=C\c2ccc3c(cnn3Cc3ccc(Cl)cc3C(F)(F)F)c2)C(=O)N1CCc1ccncc1` [Compound 108, (5Z)-5-({1-[4-Chloro-2-(trifluoromethyl)benzyl]-1H-indazol-5-yl}methylidene)-3-(2-pyridin-4-ylethyl)-1,3-thiazolidine-2,4-dione], the half-maximal effective concentration (EC50) turned out to be 102 nM.

On to `Cc1nn(C)c(Cl)c1S(=O)(=O)NCCN1C(=O)S/C(=C\c2ccc3c(cnn3Cc3ccc(Cl)cc3C(F)(F)F)c2)C1=O` [Compound 418, 5-Chloro-N-{2-[(5Z)-5-({1-[4-chloro-2-(trifluoromethyl)benzyl]-1H-indazol-5-yl}methylidene)-2,4-dioxo-1,3-thiazolidin-3-yl]ethyl}-1,3-dimethyl-1H-pyrazole-4-sulfonamide], for which the EC50 turned out to be 83 nM.

`O=C(O)C(C1CCOCC1)N1C(=O)S/C(=C\c2ccc3c(cnn3Cc3ccc(Cl)cc3C(F)(F)F)c2)C1=O` (stereo not shown) [Compound 219, [(5Z)-5-({1-[4-Chloro-2-(trifluoromethyl)benzyl]-1H-indazol-5-yl}methylidene)-2,4-dioxo-1,3-thiazolidin-3-yl](tetrahydro-2H-pyran-4-yl)acetic acid] came in with a half-maximal effective concentration (EC50) of 42 nM.

Compound `CN(C)CCN1C(=O)S/C(=C\c2ccc3c(ccn3Cc3ccc(F)cc3C(F)(F)F)c2)C1=O` [Compound 250, (5Z)-3-[2-(Dimethylamino)ethyl]-5-[(1-{[4-fluoro-2-(trifluoromethyl)phenyl]methyl}-1H-indol-5-yl)methylidene]-1,3-thiazolidine-2,4-dione] yielded a concentration for a half-maximal effect (EC50) of 200 nM.

`O=C(O)c1ccccc1CN1C(=O)S/C(=C\c2ccc3c(cnn3Cc3ccc(Cl)cc3C(F)(F)F)c2)C1=O` [Compound 379, 2-{[(5Z)-5-({1-[4-Chloro-2-(trifluoromethyl)benzyl]-1H-indazol-5-yl}methylidene)-2,4-dioxo-1,3-thiazolidin-3-yl]methyl}benzoic acid] yielded a concentration for a half-maximal effect (EC50) of 21 nM. This EC50 lies about 9.5-fold lower than the previous one.

Take `O=C1S/C(=C\c2ccc3c(cnn3Cc3ccc(Cl)cc3C(F)(F)F)c2)C(=O)N1CCN1C[C@@H]2C[C@H]1CN2` [Compound 78, (5Z)-5-({1-[4-Chloro-2-(trifluoromethyl)benzyl]-1H-indazol-5-yl}methylidene)-3-[2-(1S,4S)-(2,5-diazabicyclo[2.2.1]hept-2-yl)ethyl]-1,3-thiazolidine-2,4-dione]: the EC50 came out at 41 nM.
